The source of these data is ChEMBL document CHEMBL5385845, “Novel coumarin aminophosphonates as potential multitargeting antibacterial agents against Staphylococcus aureus” (Eur J Med Chem, 2023).

Series [1] relates to Staphylococcus aureus. Briefly: Antibacterial activity against methicillin resistant Staphylococcus aureus N315 assessed as inhibition of bacterial growth. It counts as functional.
The test system of series [2] is Enterococcus faecalis. Briefly: Antibacterial activity against Enterococcus faecalis assessed as inhibition of bacterial growth. It is filed as functional.
The subject of series [3] is Staphylococcus aureus. In words: Antibacterial activity against Staphylococcus aureus assessed as inhibition of bacterial growth. It counts as functional.
Series [4] concerns Staphylococcus aureus. In words: Antibacterial activity against Staphylococcus aureus ATCC 25923 assessed as inhibition of bacterial growth. It counts as functional.
For series [5], the system named is Staphylococcus aureus. Briefly: Antibacterial activity against Staphylococcus aureus ATCC 29213 assessed as inhibition of bacterial growth. It is filed as functional.
For series [6], the system named is Klebsiella pneumoniae. Briefly: Antibacterial activity against Klebsiella pneumoniae assessed as inhibition of bacterial growth. It counts as functional.
Series [7] deals with Escherichia coli. In words: Antibacterial activity against Escherichia coli assessed as inhibition of bacterial growth. It is filed as functional.
The test system of series [8] is Pseudomonas aeruginosa. Briefly: Antibacterial activity against Pseudomonas aeruginosa assessed as inhibition of bacterial growth. It counts as functional.
Series [9] deals with Acinetobacter baumannii. Briefly: Antibacterial activity against Acinetobacter baumannii assessed as inhibition of bacterial growth. It counts as functional.
The subject of series [10] is Pseudomonas aeruginosa. In words: Antibacterial activity against Pseudomonas aeruginosa ATCC 27853 assessed as inhibition of bacterial growth. It counts as functional.
The subject of series [11] is Escherichia coli. In words: Antibacterial activity against Escherichia coli ATCC 25922 assessed as inhibition of bacterial growth. It is filed as functional.
Series [12] concerns Staphylococcus aureus. Briefly: Synergistic antibacterial activity against Staphylococcus aureus assessed as inhibition of bacterial growth in presence of norfloxacin. It counts as functional.
The subject of series [13] is Escherichia coli. In words: Synergistic antibacterial activity against Escherichia coli ATCC 25922 assessed as inhibition of bacterial growth in presence of norfloxacin. It counts as functional.
Series [14] has as its system Staphylococcus aureus. Briefly: Synergistic antibacterial activity against Staphylococcus aureus assessed as fractional inhibitory concentration index in presence of norfloxacin. It is filed as functional.
The nature of series [15]: Hemolytic activity in RBC (unknown origin) assessed as hemolysis at 256 ug/ml incubated for 6 hrs relative to control. It is filed as toxicity, cell-based, Erythrocyte. As to conditions: red blood cells (erythrocytes), at 256 µg/mL, read-out: Activity.
Series [16] concerns Staphylococcus aureus. In words: Antibacterial activity against Staphylococcus aureus assessed as reduction in bacterial biofilm formation. It counts as functional, organism-based.
Series [17] concerns Staphylococcus aureus. In words: Antibacterial activity against Staphylococcus aureus assessed as reduction in bacterial biofilm formation at 16 x MIC relative to control. Further details: scale not given: the % may be the effect or the level left. It counts as functional.
The subject of series [18] is Staphylococcus aureus. In words: Induction of drug resistance in Staphylococcus aureus assessed as increase in MIC measured for 16 passages. It counts as functional.
Series [19] has as its system Cell membrane. Briefly: Induction of cell membrane depolarization in Staphylococcus aureus assessed as increase in fluorescence intensity by DiSC3(5) dye-based fluorescence assay.
For series [20], the system named is Cell membrane. In words: Induction of cytoplasmic membrane depolarization in Staphylococcus aureus assessed as increase in fluorescence intensity measured at 10 mins by DiSC3(5) dye-based fluorescence assay. It counts as subcellular.
The test system of series [21] is Cell membrane. Briefly: Induction of cell membrane permeabilization in Staphylococcus aureus by propidium iodide dye-based fluorescence assay.
Series [22] deals with Cell membrane. Briefly: Induction of cell membrane permeabilization in Staphylococcus aureus by calcein-AM dye-based fluorescence assay. It counts as subcellular.
In series [23] the test system is Cell membrane. Briefly: Disruption of cell membrane integrity in Staphylococcus aureus assessed as cell membrane damage by scanning electron microscopic analysis. It counts as subcellular.
The test system of series [24] is Cell membrane. In words: Disruption of cell membrane integrity in Staphylococcus aureus assessed as increase in protein leakage.
The test system of series [25] is Staphylococcus aureus. Briefly: Antibacterial activity against Staphylococcus aureus assessed as reduction in cellular metabolic activity by resazurin staining based assay. It is filed as functional, organism-based. For orientation: The colour change of resazurin is a common sign of viable cells or microbes.
For series [26], the system named is Staphylococcus aureus. In words: Antibacterial activity against Staphylococcus aureus assessed as fold increase in intracellular ROS production at 8 times MIC by DCFH-DA dye based fluorometric assay relative to control. It counts as functional.
For series [27], the system named is Staphylococcus aureus. In words: Antibacterial activity against Staphylococcus aureus assessed as increase in RNS production by griess reagent-based analysis. It is filed as functional, organism-based.
Series [28] has as its system Staphylococcus aureus. In words: Antibacterial activity against Staphylococcus aureus assessed as fold increase in RNS production at 8 times MIC by griess reagent-based analysis. It counts as functional.
The test system of series [29] is Staphylococcus aureus. Briefly: Induction of oxidative stress in Staphylococcus aureus assessed as decrease in GSH activity at 8 times MIC relative to control. It counts as functional. On the set-up: scale not given: the % may be the effect or the level left.
Series [30] has as its system Staphylococcus aureus. Briefly: Antibacterial activity against Staphylococcus aureus assessed as fold increase in malondialdehyde level at 1 to 5 times MIC. It counts as functional.
For series [31], the system named is Staphylococcus aureus. In words: Antibacterial activity against Staphylococcus aureus assessed as effect on lipid peroxidation production at 1 to 5 times MIC incubated for 5 to 20 mins. It is filed as functional, organism-based. As to conditions: time 5-20 min.
For series [32], the system named is Calf thymus DNA. Briefly: Binding affinity to calf thymus DNA assessed as intercalation by measuring hypochromic shift by UV-Vis spectroscopic analysis. It is filed as nucleic-acid assay. As to conditions: Bos taurus.
In series [33] the test system is Calf thymus DNA. In words: Binding affinity to calf thymus DNA by acridine orange staining based competitive binding assay. As to conditions: Bos taurus. It is filed as nucleic-acid assay.
The test system of series [34] is Calf thymus DNA. In words: Binding affinity to calf thymus DNA by DAPI staining based competitive binding assay. As to conditions: Bos taurus. It counts as nucleic-acid assay.
The subject of series [35] is Staphylococcus aureus. In words: Antibacterial activity against Staphylococcus aureus assessed as inhibition of bacterial growth at 1 to 4 times MIC incubated for 4 hrs. It counts as functional, organism-based.
In series [36] the test system is Staphylococcus aureus. In words: Antibacterial activity against Staphylococcus aureus assessed as inhibition of bacterial growth at 0.5 times MIC incubated for 4 hrs. It is filed as functional, organism-based.
Series [37] deals with Escherichia coli. In words: Synergistic antibacterial activity against Escherichia coli ATCC 25922 assessed as fractional inhibitory concentration index in presence of norfloxacin. It counts as functional.
In series [38] the test system is Staphylococcus aureus. Briefly: Synergistic antibacterial activity against Staphylococcus aureus assessed as inhibition of bacterial growth in presence of compound 6f. It counts as functional.
Series [39] concerns Escherichia coli. Briefly: Synergistic antibacterial activity against Escherichia coli ATCC 25922 assessed as inhibition of bacterial growth in presence of compound 6f. It is filed as functional.
The test system of series [40] is Staphylococcus aureus. Briefly: Induction of drug resistance in Staphylococcus aureus assessed as fold increase in MIC measured for 23 passages. It counts as functional.

The structures appear in SMILES notation. Converted amounts (≈) assume the structure as drawn. The source made the active and inactive calls. No cut-off for these calls is given here.

Turning to `CCOP(=O)(OCC)C(Nc1ccc2c(C)cc(=O)oc2c1)c1cccc(O)c1` (centres undefined), the MIC in series [1] came out at 32 µg/mL (≈ 76.7 µM); in series [2] it was 16 µg/mL (≈ 38.3 µM); in series [3], 0.5 µg/mL (≈ 1.2 µM); in series [4] it was 8 µg/mL (≈ 19.2 µM); in series [5] it was 16 µg/mL (≈ 38.3 µM); in [6], 64 µg/mL (≈ 153 µM). Also, the MIC in [7] turned out to be 64 µg/mL (≈ 153 µM); in [8], 16 µg/mL (≈ 38.3 µM); in series [9], 16 µg/mL (≈ 38.3 µM); in series [10], 64 µg/mL (≈ 153 µM); in [11], 4 µg/mL (≈ 9.58 µM); in [12], 0.063 µg/mL. Further, the MIC in series [13] was 1 µg/mL. The results for the “fractional inhibitory concentration index (FICI)” value in [14] and in [37] were 0.25 and 0.75, respectively. Also, in [15], the hemolysis at 6 h, 256 ug/ml was below 4%. Moreover, the Activity entry in series [16] is “Dose-Dependent Effect”; in series [17] it was 30%; in series [19], “Dose-Dependent Effect”; in series [21], “Dose-Dependent Effect”; in [22], “Dose-Dependent Effect”; in series [24], “Dose-Dependent Effect”. Besides, the Activity entry in series [25] is “Dose-Dependent Effect”; in series [27], “Dose-Dependent Effect”; in series [29] it was 16%; in series [32], “Dose-Dependent Effect”. Besides, the outcome in series [18] and in series [31] was inactive. Moreover, the result in series [20], in [23], in series [33], in series [34], in [35] and in series [36] was Active. The “fold change (FC)” value in [26] came out at 3.7; in [28], 2.2; in [30], 2.
`CCOP(=O)(OCC)C(Nc1ccc2c(C(F)(F)F)cc(=O)oc2c1)c1cccc(O)c1` (centres undefined): the MIC turned out to be 32 µg/mL (≈ 67.9 µM) in series [1]; 16 µg/mL (≈ 33.9 µM) in [2]; 16 µg/mL (≈ 33.9 µM) in series [3]; 8 µg/mL (≈ 17 µM) in series [4]; 64 µg/mL (≈ 136 µM) in series [5]; 32 µg/mL (≈ 67.9 µM) in series [6]. The MIC was 256 µg/mL (≈ 543 µM) in [7]; 32 µg/mL (≈ 67.9 µM) in [8]; 128 µg/mL (≈ 272 µM) in [9]; 16 µg/mL (≈ 33.9 µM) in series [10]; 16 µg/mL (≈ 33.9 µM) in [11].
As to `CCn1cc(C(=O)O)c(=O)c2cc(F)c(N3CCNCC3)cc21` [NORFLOXACIN], the MIC in series [1] is 4 µg/mL (≈ 12.5 µM); in [2], 8 µg/mL (≈ 25.1 µM); in series [3] it was 16 µg/mL (≈ 50.1 µM); in series [4], 8 µg/mL (≈ 25.1 µM); in series [5], 16 µg/mL (≈ 50.1 µM); in series [6], 1 µg/mL (≈ 3.13 µM). The MIC in [7] turned out to be 8 µg/mL (≈ 25.1 µM); in series [8], 4 µg/mL (≈ 12.5 µM); in series [9], 8 µg/mL (≈ 25.1 µM); in series [10] it was 4 µg/mL (≈ 12.5 µM); in [11], 16 µg/mL (≈ 50.1 µM); in series [38], 4 µg/mL. Moreover, in [39], the MIC amounted to 8 µg/mL. Further, the fold change (FC) in series [40] is 32.
As to `CCOP(=O)(OCC)C(Nc1ccc2c(CCl)cc(=O)oc2c1)c1cccc(O)c1` (centres undefined), the MIC in [1] was 64 µg/mL (≈ 142 µM); in series [2], 32 µg/mL (≈ 70.8 µM); in series [3], 16 µg/mL (≈ 35.4 µM); in series [4], 16 µg/mL (≈ 35.4 µM); in series [5], 64 µg/mL (≈ 142 µM); in series [6] it was 128 µg/mL (≈ 283 µM). The MIC came to 64 µg/mL (≈ 142 µM) in [7]; 128 µg/mL (≈ 283 µM) in series [8]; 64 µg/mL (≈ 142 µM) in series [9]; 32 µg/mL (≈ 70.8 µM) in series [10]; 8 µg/mL (≈ 17.7 µM) in series [11].
On to `CCOP(=O)(OCC)C(Nc1cc2ccccc2oc1=O)c1cccc(O)c1` (centres undefined), for which the MIC amounted to 32 µg/mL (≈ 79.3 µM) in [1]; 16 µg/mL (≈ 39.7 µM) in series [2]; 8 µg/mL (≈ 19.8 µM) in series [3]; 8 µg/mL (≈ 19.8 µM) in series [4]; 32 µg/mL (≈ 79.3 µM) in [5]; 128 µg/mL (≈ 317 µM) in series [6]. For the same compound, the MIC in series [7] was determined as 64 µg/mL (≈ 159 µM); in series [8], 32 µg/mL (≈ 79.3 µM); in series [9], 16 µg/mL (≈ 39.7 µM); in [10], 4 µg/mL (≈ 9.92 µM); in series [11], 32 µg/mL (≈ 79.3 µM).

As usually defined, the MIC is the least concentration at which growth counts as inhibited.
